Values joined by “and” are separate entries in the source; they are usually repeats but may differ in a detail not shown here. Equal entries are not always repeated. Where two headings read alike, the source gives them in different places.
Experiments:
[1] = dog, cited from earlier work
[2] = Phase I toxicity graded by Common Toxicity Criteria
Protocol: (§1) British Joumal of Cancer (1997) 75(4), 608-613 ? […] A phase I study was performed using a single oral dose every 3 weeks, administered as a suspension reconstituted in 0.1% Tween 80 and 0.9% saline. The starting dose was 2.8 mg m-2, and dose doubling was permitted until the area under curve (AUC) was ?40% of that at the mouse LD10; thereafter, a modified Fibonacci scheme was used. […] Keywords: tubulin; multidrug resistance; neurotoxicity The tubulin-binding agent 1069C85 was developed from a struc- ture activity investigation of tubulin inhibitors binding at the colchicine site on tubulin. […] No studies were performed using human tumour xenografts. […] METHODS Formulation and drug administration A formulation was developed at the Cancer Research Campaign Formulation Unit. The drug was dispensed into vials as a dry powder and reconstituted as a fine suspension by administration of 0.9% saline containing 0.1% Tween 80 (polysorbate) with vigorous mixing. Immediately before oral administration, the drug suspension was mixed with orange juice both to disguise any possible unpleasant taste and to help ensure complete ingestion.

mammalian tubulin = system: mammalian tubulin; parameters: method as in Hodgson et al 1992; Hodgson, 1994; settings: at concentrations cytotoxic to P388 cells, ref Hodgson et al 1992, 1994; cited from earlier work
[3] = system: murine tumour cell lines with acquired resistance to natural anti-cancer products; settings: acquired resistance to a variety of natural anti-cancer products, ref Hodgson et al, 1992, 1994; cited from earlier work
[4] = Stability of 1069C85 in orange juice; settings: suspension mixed with orange juice
Protocol: as §1

murine tumours = settings: cited from earlier work
rats = system: rats; parameters: method as in data on file, Cancer Research Campaign, 1993; settings: 14.3 mg m-2 p.o. (one-tenth mouse LD10), daily x 5 for 4 weeks, rat; ref data on file, Cancer Research Campaign, 1993; cited from earlier work
mice = system: mice; parameters: method as in data on file, Cancer Research Campaign, 1993; settings: ref data on file, Cancer Research Campaign, 1993, cited from earlier work
[5] = cited from earlier work
Aqueous solubility = format: physicochemical
dogs = system: dogs; parameters: method as in Data on file, Glaxo/Wellcome, 1990; settings: 20 mg m-2; ref Data on file, Glaxo/Wellcome, 1990; cited from earlier work
rodents = system: rodents; parameters: method as in data on file, Cancer Research Campaign, 1993; settings: ref data on file, Cancer Research Campaign, 1993; cited from earlier work
[6] = Phase I pharmacokinetics: plasma 1069C85 by HPLC after single oral dose; parameters: Cmax of the patient experiencing grade 3 neurotoxicity: unit not given beside the values
Protocol: as §1

[7] = parameters: method as in data on file Glaxo/Wellcome, 1990; settings: monkey, p.o.; ref data on file Glaxo/Wellcome, 1990; cited from earlier work
human tumour cell lines = settings: ref Raynaud et al, 1994; cited from earlier work
[8] = parameters: method as in Raynaud et al, 1994; settings: mouse, estimated; ref Raynaud et al, 1994; cited from earlier work
[9] = Tumour response assessment in phase I patients; format: in vivo, human; settings: 39 patients, 2.8-200 mg m-2
Protocol: as §1

[10] = Protein binding in human plasma (Amicon membrane centrifugation); settings: 25 C
Protocol: as §1

[11] = 1995, cited from earlier work
[12] = parameters: method as in van Asperen et al (1996); settings: ref van Asperen et al (1996); cited from earlier work
[13] = grade 3 patient, 200 mg m-2 non-micronized
[14] = grade 4 neurotoxicity patient, 100 mg m-2 micronized
[15] = patient no. 39, 50 mg m-2 micronized
[16] = single patient, 200 mg m-2 non-micronized, visual disturbance, flashing lights
[17] = micronized, 25 mg m-2, mean (SD), 5 patients
[18] = micronized, 35.8 mg m-2, 1 patient
[19] = micronized, 50 mg m-2, mean, 2 patients
[20] = micronized, 100 mg m-2, mean, 2 patients previously treated at 200 mg m-2 standard formulation
[21] = non-micronized, 2.8 mg m-2, mean (SD), 3 patients
[22] = non-micronized, 5.6 mg m-2, mean, 2 patients
[23] = non-micronized, 11.2 mg m-2, mean (SD), 4 patients
[24] = non-micronized, 22.4 mg m-2, mean (SD), 3 patients
[25] = non-micronized, 35.8 mg m-2, mean (SD), 4 patients
[26] = non-micronized, 50 mg m-2, mean, 2 patients
[27] = non-micronized, 100 mg m-2, mean (SD), 4 patients
[28] = non-micronized, 200 mg m-2, mean (SD), 4 patients
[29] = single patient (no. 39), 50 mg m-2 micronized
[30] = single patient, 100 mg m-2 micronized, ataxia, confusion, hallucinations, coma
[31] = single patient, 100 mg m-2 micronized, vivid dreams, disturbed sleep
[32] = single patient, 200 mg m-2 non-micronized, ataxia, confusion, disorientation

SMILES: COC(=O)Nc1cn2nc(OCc3cc(OC)c(OC)c(OC)c3)ccc2n1 [1069C85]
- oral bioavailability ([1]; i.v. formulation dimethyl isosorbide, ref data on file, Glaxo/Wellcome 1990): 7%
- plasma elimination half-life following oral administration ([1]; p.o., ref Data on file 1990): approximately 16 h
- incidence of central neurotoxicity (mainly mild sedation) ([2]; 200 mg m-2, non-micronized): four of five
- duration of neurotoxic symptoms [2, 13]: 7 days
- onset of neurotoxic symptoms after dosing [2, 13]: 48 h
- alopecia grade [2, 14]: 2
- neutropenia grade [2, 14]: 3
- onset of neurotoxicity ([2]; grade 4 patient, 100 mg m-2 micronized): approximately 48 h
- severe central neurotoxicity, maximum grade ([2]; micronized formulation, doses of 50-100 mg m-2): ≤ 4
- toxicities observed ([2]; micronized, 25 or 35.8 mg m-2): No significant toxicities
- nausea and vomiting grade (only toxicities observed) ([2]; non-micronized, 2.8 to 22.4 mg m-2): 1-2
- antiproliferative toxicities ([2]; original formulation, 2.8-200 mg m-2): no antiproliferative toxicities
- day of death attributed to 1069C85 [2, 15]: 8 days
- thrombocytopenia grade [2, 15]: 3
- vomiting and diarrhoea grade [2, 15]: 2
- neutropenia grade ([2]; patient no. 39, 50 mg m-2 micronized, onset day 6): 4
- Cmax at which severe neurotoxicity was not observed ([2]; patients): < 100 ng ml'
- peak plasma concentration above which CNS neurotoxicity was severe ([2]; patients): above 100 tg 1-'
- Neurotoxicity (CTC grade) ([2]; single patient (no. 39), 50 mg m-2 micronized, agitation, confusion and visual hallucinations, days 2-6): 3
- Neurotoxicity (CTC grade) ([2]; single patient, 100 mg m-2 micronized, ataxia, confusion, hallucinations, coma, days 2-7): 4
- Neurotoxicity (CTC grade) ([2]; single patient, 100 mg m-2 micronized, vivid dreams, disturbed sleep, days 3-6): 1
- Neurotoxicity (CTC grade) ([2]; single patient, 200 mg m-2 non-micronized, ataxia, confusion, disorientation, days 2-6): 3
- Neurotoxicity (CTC grade) [2, 16]: 1
- inhibition of tubulin polymerization (mammalian tubulin): potent inhibition
- activity against resistant murine tumour cell lines [3]: retained activity
- effect of orange juice on the stability [4]: no effect
- activity of the 20 mg kg-1 oral dose (murine tumours; 20 mg kg-1, oral, mouse): active dose
- anti-tumour activity in vivo (murine tumours; oral route, a variety of murine tumours): confirmed
- animals in which repeat dosing proved fatal (rats): seven out of ten
- LD10, single dose intraperitoneally (mice; mice, i.p.): 39.6 mg m-2
- LD10, single oral dose (mice; mice, p.o.): 142.2 mg m-2
- repeat dose that proved to be fatal (mice; mouse, i.p., daily x 5 for 4 weeks): above 3.9 mg m-2
- increase of bioavailability with micronized drug ([5]; mice, preclinical, ref F I Raynaud, personal communication): two-threefold
- oral bioavailability ([5]; mouse, i.v. vehicle DMSO/saline, ref Raynaud et al, 1994): 20%
- plasma elimination half-life following oral administration ([5]; mouse, p.o., ref Raynaud et al, 1994): ~8 h
- aqueous solubility (Aqueous solubility): extremely poor
- toxicity observed in dogs (dogs): fatal toxicity
- dose limiting toxicities (rodents): myelosuppression and gastrointestinal damage
- Cmax of the patient experiencing grade 3 neurotoxicity ([6]; 200 mg m-2, non-micronized): 159
- AUC [6, 17]: 1061.8 (?269.1) gg 1-1 h-1
- Cmax [6, 17]: 58.6 (?19.5) hg 1-'
- Tmax [6, 17]: 9.8 (?3.2) h
- t1/2 [6, 17]: 38.9 (?36.9) h
- AUC [6, 18]: 1262.3 gg 1-1 h-1
- Cmax [6, 18]: 70.7 hg 1-'
- Tmax [6, 18]: 6.3 h
- t1/2 [6, 18]: 16.3 h
- AUC [6, 19]: 3786.9 gg 1-1 h-1
- Cmax [6, 19]: 198.9 hg 1-'
- Tmax [6, 19]: 10.6 h
- t1/2 [6, 19]: 24 h
- AUC [6, 20]: 15011.7 gg 1-1 h-1
- Cmax [6, 20]: 292.3 hg 1-'
- Tmax [6, 20]: 6.1 h
- t1/2 [6, 20]: 24.7 h
- time after dosing at which drug was still detectable in the cerebrospinal fluid ([6]; most severely affected patient, 100 mg m-2 micronized): 8 days and 7 days
- terminal half-life (range between patients) ([6]; non-micronized formulation, one-compartment model): 7 to 107 h
- Cmax [6, 21]: 7.3 (?3.4) hg 1-'
- Tmax [6, 21]: 10 (?7.1) h
- t1/2 [6, 21]: 29 (+22) h
- AUC ([6]; non-micronized, 2.8 mg m-2 single oral dose, mean (SD), 3 patients, AUC to 24 h): 69.9 (?30.2) gg 1-1 h-1
- AUC [6, 22]: 209.7 gg 1-1 h-1
- Cmax [6, 22]: 13 hg 1-'
- Tmax [6, 22]: 9.5 h
- t1/2 [6, 22]: 39.5 h
- AUC [6, 23]: 371.5 (?178.7) gg 1-1 h-1
- Cmax [6, 23]: 21.7 (?11.3) hg 1-'
- Tmax [6, 23]: 5.3 (?1.2) h
- t1/2 [6, 23]: 23.2 (?6.9) h
- AUC [6, 24]: 476.4 (?206.8) gg 1-1 h-1
- Cmax [6, 24]: 25.9 (?11.4) hg 1-'
- Tmax [6, 24]: 7.6 (?1.9) h
- t1/2 [6, 24]: 35.7 (?15.1) h
- AUC [6, 25]: 507.5 (?153.6) gg 1-1 h-1
- Cmax [6, 25]: 33 (?13.9) hg 1-'
- Tmax [6, 25]: 7.8 (?3.4) h
- t1/2 [6, 25]: 22.9 (?19.5) h
- AUC [6, 26]: 423.3 gg 1-1 h-1
- Cmax [6, 26]: 22 hg 1-'
- Tmax [6, 26]: 7.2 h
- t1/2 [6, 26]: 73.5 h
- AUC [6, 27]: 844.7 (?314.7) gg 1-1 h-1
- Cmax [6, 27]: 48.5 (?25) hg 1-'
- Tmax [6, 27]: 4.8 (?1.1) h
- t1/2 [6, 27]: 23 (?4.3) h
- AUC [6, 28]: 3011 (?1771.4) gg 1-1 h-1
- Cmax [6, 28]: 99.8 (?36.9) hg 1-'
- Tmax [6, 28]: 8.8 (?1.9) h
- t1/2 [6, 28]: 18.2 (?3) h
- terminal elimination half-life (range) ([6]; original formulation, single oral dose every 3 weeks, patients): 18 to 73.5 h
- AUC [6, 29]: 16.4 ItM h
- Cmax [6, 29]: 327 .g l-i
- AUC [6, 30]: 23.4 ItM h
- Cmax [6, 30]: 495 .g l-i
- AUC [6, 31]: 53.9 ItM h
- Cmax [6, 31]: 90 .g l-i
- AUC [6, 32]: 15.2 ItM h
- Cmax [6, 32]: 159 .g l-i
- AUC [6, 16]: 5.1 ItM h
- Cmax [6, 16]: 100 .g l-i
- plasma elimination half-life following oral administration [7]: ~2 h
- activity in resistant human tumour cell lines (human tumour cell lines): confirmed these findings
- Protein binding [8]: 85-99%
- objective responses [9]: no objective responses
- Protein binding [10]: > 99%

SMILES: CCOC(=O)Nc1cc2c(c(N)n1)N=C(c1ccccc1)[C@H](C)N2 [CI-980]
- dose limiting toxicity ([11]; 24 h-infusion schedule, ataxia, confusion and coma, ref Sklarin et al): dose limiting central neurotoxicity
- dose limiting toxicity ([11]; 72 h-infusion, ref Rowinsky et al): dose limiting myelosuppression

SMILES: CC[C@]1(O)C[C@@H]2CN(CCc3c([nH]c4ccccc34)[C@@](C(=O)OC)(c3cc4c(cc3OC)N(C)[C@H]3[C@@](O)(C(=O)OC)[C@H](OC(C)=O)[C@]5(CC)C=CCN6CC[C@]43[C@@H]65)C2)C1 [vinblastine]
- accumulation of drug in the brains of P-glycoprotein-deficient versus wild-type mice [12]: substantially greater accumulation

Source: PMC2063322, “Phase I trial and pharmacokinetics of the tubulin inhibitor 1069C85--a synthetic agent binding at the colchicine site designed to overcome multidrug resistance” (British Journal of Cancer, 1997)
